Assay results published in ChEMBL document CHEMBL3112402, “Chemical constituents of Plectranthus amboinicus and the synthetic analogs possessing anti-inflammatory activity” (Bioorg Med Chem, 2014).

Test system: not listed separately
Experiment: Antiinflammatory activity in PMA-activated human U937 cells assessed as inhibition of LPS-induced TNF-alpha expression preincubated for 2 hrs followed by LPS challenge measured after 6 hrs by ELISA
Format: functional, cell-based
Settings: U-937

Row | IC50 | SMILES
1 | 23.7 µM | C/C=C1\C(=O)C=C(C(C)C)C1=O
2 | 10.1 µM | CC1=CC(=O)/C(=C\C(C)C)C1=O
3 | 5.1 µM | CC(C)C=C1C(=O)C=CC1=O

Row | SMILES | IC50
4 | CC1=CC(=O)C(C(C)C)=CC1=O [THYMOQUINONE] | 102 µM

Molecular target: Transcription factor Jun (Homo sapiens, UniProt P05412)
Sequence (P05412 whole entry): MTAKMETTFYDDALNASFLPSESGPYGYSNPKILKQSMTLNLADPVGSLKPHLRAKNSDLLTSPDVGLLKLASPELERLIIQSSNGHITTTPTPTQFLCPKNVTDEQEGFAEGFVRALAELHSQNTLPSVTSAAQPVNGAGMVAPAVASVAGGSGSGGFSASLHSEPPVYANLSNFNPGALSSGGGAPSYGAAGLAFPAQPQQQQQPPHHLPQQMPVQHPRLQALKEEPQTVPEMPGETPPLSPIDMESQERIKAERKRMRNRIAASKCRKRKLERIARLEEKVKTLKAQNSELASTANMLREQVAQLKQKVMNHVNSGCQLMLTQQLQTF
Experiment: Inhibition of transcription factor AP-1 binding to oligonucleotide containing TPA-responsive element in TPA-activated human HeLa cells after 1 hr by ELISA
Format: cell-based
Settings: not given

Row | IC50 | SMILES
5 | 11.9 µM | O=C(O)/C(=C\c1ccc(O)c(O)c1)C(c1ccc(O)c(O)c1)C(O)C(=O)O (stereo not drawn)
6 | 1.3 µM | O=C(O[C@H](Cc1ccc(O)c(O)c1)C(=O)O)[C@H]1[C@H](C(=O)O[C@H](Cc2ccc(O)c(O)c2)C(=O)O)[C@H](c2ccc(O)c(O)c2)[C@H]1c1ccc(O)c(O)c1
7 | 1.6 µM | O=C(O[C@H](Cc1ccc(O)c(O)c1)C(=O)O)C1=Cc2ccc(O)c(O)c2C(C(=O)O[C@H](Cc2ccc(O)c(O)c2)C(=O)O)C1c1ccc(O)c(O)c1 (stereo partly drawn)
8 | 16.2 µM | O=C(/C=C/c1ccc(O)c(O)c1)O[C@H](Cc1ccc(O)c(O)c1)C(=O)O [ROSMARINIC ACID]
